Patent publication US12385839B2, “Use of protein in predicting drug properties” (priority 2021, dated 2025)
Read-outs that look alike come from different tables or passages of the source.

Experiments:
[1] = target: T1, human serum albumin (HSA) (Homo sapiens, UniProt P02768); assay: Circular dichroism spectrum, secondary structure (α-helix content) of HSA; details: HSA 2×10^−6 M
Description: the mixed solution to be tested was preheated at […] for 2-5 minutes, and the CD spectrum of HSA was recorded in the wavelength range of 200-500 nm . The concentration of HSA was kept at 2×10^−6 M, and the pesticide was (0-20)×10^−6 m. Firstly, HSA was measured, and then the ratio of HSA to pesticides needed to be determined specifically, which was preliminarily determined according to the ratio of 1:1, 1:2 and 1:3.
According to the following equation, the result of CD spectrum was usually expressed as the mean residue ellipticity (MRE), and the unit was deg·cm^2·dmol^−1. MRE=ObservedCD(mdeg)/(10Cpnl) (9);
in which Cp is the molar concentration of protein, n is the number (585) of amino acid residues, and 1 is the path length (1 mm). The α helicity of free and bound HSA is calculated from MRE values using the following formula: α−Helix(%)=[(−MRE208−4000)×100]/(33000-4000) (10)
in which the MRE208 is the MRE value observed at 208 nm , 4000 is the MRE value of random coil conformation at 208 nm , and […] is the MRE value of pure α helix at 208 nm .

[2] = target: T1, human serum albumin (HSA); assay: Fluorescence emission spectrum (quenching) of HSA with carbamate pesticides; assay type: binding; details: for Ksv (37°) / ΔG(37°) / Binding distance/r / Number of binding sites/n: modelling table; for Kq / Ksv / n (number of binding sites) / Kd: pH 7.4; for R (binding distance): Förster energy transfer; for fluorescence of HSA quenched by pesticide: titration of pesticide; for ΔH^0 / ΔS^0: Van't Hoff, 296-310 K
Description: the mixed solution to be tested was preheated at […] for 3 minutes, and the emission spectrum of HSA with carbamate pesticides was measured at 300-500 nm . The excitation wavelength was set at 280 nm , and the slit width for both excitation and emission was 15 nm; the HSA concentration was kept constant at 5×10^−7 M, and the pesticide concentration was (0-105)×10^−7 M.
The internal filtering effect of fluorescence signal was corrected according to the following formula: Fcor=Fobsexp[(Aex+Aem)/2] (1);
in this formula, Fcor and Fobs represent corrected fluorescence signal and observed fluorescence signal, respectively, and Aex and Aem represent absorbance of the mixed solution to be tested at excitation wavelength and emission wavelengths, respectively; the quenching constant, number of binding sites, binding constant, free energy and binding distance of different drugs were obtained by fluorescence emission spectra, and a BP neural network model was obtained. Specifically, they were obtained as follows:
There is a linear relationship between F0/F and [Q] to distinguish whether it is static quenching or dynamic quenching. The fluorescence quenching data are analyzed by Stern-Volmer equation to clarify the quenching mechanism: F0/F=1+KSV[Q]=1+Kqτ0[Q] (2);
in the formula, F0 and F are fluorescence signals […] quencher, respectively. Ksv is Stern-Volmer quenching constant; Kq is a quenching rate constant of biomolecules; τ0 is the average lifetime of biomolecules without quencher (about 10^−8 s); [Q] is the concentration of quencher.
The maximum dynamic quenching rate constant of all kinds of quenchers on polymers was 2.0×10^10 L·mol^−1·s^−1. Static quenching and dynamic quenching could be judged according to this value. If K^q was greater than 2.0×10^10 L·mol^−1·s^−1, it belonged to static quenching. Otherwise, it belonged to dynamic quenching.
In this part, the binding sites and binding constants between carbamate pesticides and HSA were calculated. The following formula was used to calculate the number of binding sites (n) and the binding constant (Ka) of carbamate pesticides and HSA: log[(F0−F)/F]=log Ka+nlog[Q] (3);
The interactions between biological molecules and drug molecules were weak intermolecular interactions, including hydrogen bonds, van der Waals forces, electrostatic forces and hydrophobic interactions. By using Van't Hoff equation, the thermodynamic constants of drug-protein interaction were obtained, and the main types of drug-protein interaction were judged according to the changes of binding constants under different conditions. LnK=−ΔH^0/RT+ΔS^0/R (4); ΔG^0=ΔH^0−TΔS^0 (5);
There is a relationship among energy transfer efficiency E, distance r between energy donor and energy receptor and energy transfer distance R0. E=1−F/F0=R0^6/(R0^6+r^6) (6);
E represents the transfer efficiency between donor and receptor, r is the average distance between donor and receptor, and R0 is the critical distance when the transfer efficiency is 50%. R0^6=8.79×10^−K^2N^−4φJ (7)
K^2 is the orientation related to the geometry of donor and receptor of dipole. For random orientation in fluid, K^2=2/3; N is the average refractive index of the medium in the wavelength range with obvious spectral overlap, and the refractive index of water and organic matter is 1.336; φ is the quantum yield of donor, and the quantum yield of tryptophan in HSA is about 0.118; J represents the influence of spectral overlap between the emission spectrum of the donor and the absorption spectrum of the receptor, and can be calculated by the following formula: j=ΣF(λ)ϵ(λ)λ^4Δλ/ΣF(λ) Δλ (8);
F(λ) is the corrected fluorescence signal of the donor in the wavelength range from λ to (λ+Δλ), while ϵ(λ) is the extinction coefficient of the receptor at λ.

[3] = cited from earlier work; for LD50: modelling table; for Toxicity: toxicity grade by LD50, trailing figure = number of pesticides in group
[4] = 296 K, read-out: Ka (binding constant)
[5] = 303 K, read-out: Ka (binding constant)
[6] = 310 K, read-out: Ka (binding constant)

T1 sequence (P02768 25-609): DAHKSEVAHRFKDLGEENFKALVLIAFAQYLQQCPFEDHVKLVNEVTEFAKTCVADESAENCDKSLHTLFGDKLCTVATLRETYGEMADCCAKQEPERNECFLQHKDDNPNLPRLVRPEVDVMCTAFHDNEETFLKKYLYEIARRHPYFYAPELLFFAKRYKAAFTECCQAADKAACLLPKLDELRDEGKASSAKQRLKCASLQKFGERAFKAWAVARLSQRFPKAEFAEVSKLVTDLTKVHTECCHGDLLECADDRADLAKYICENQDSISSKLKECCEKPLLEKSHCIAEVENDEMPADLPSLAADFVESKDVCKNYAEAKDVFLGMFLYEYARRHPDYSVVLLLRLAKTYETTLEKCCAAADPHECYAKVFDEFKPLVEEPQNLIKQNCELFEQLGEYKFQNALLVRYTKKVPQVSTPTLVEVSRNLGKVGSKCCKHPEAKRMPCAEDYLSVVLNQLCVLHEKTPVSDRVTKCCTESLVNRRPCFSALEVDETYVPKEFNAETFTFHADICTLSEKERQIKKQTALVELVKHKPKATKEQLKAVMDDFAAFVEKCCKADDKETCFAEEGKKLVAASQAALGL

Structure (SMILES) | α-helix contents ([1]; 5:1 (Pesticide:HSA)) [%] | α-helix contents ([1]; 10:1 (Pesticide:HSA)) [%] | Ksv (37°) [2] | ΔG(37°) [2] | ΔG^0 ([2]; 296 K) [kJ/mol] | Kq ([2]; 296 K) | Ksv ([2]; 296 K) | n (number of binding sites) ([2]; 296 K) | ΔG^0 ([2]; 303 K) [kJ/mol] | Kq ([2]; 303 K) | Ksv ([2]; 303 K) | n (number of binding sites) ([2]; 303 K) | ΔG^0 ([2]; 310 K) [kJ/mol] | R (binding distance) ([2]; 310 K) [nm] | Kq ([2]; 310 K) | Ksv ([2]; 310 K) | n (number of binding sites) ([2]; 310 K) | fluorescence of HSA quenched by pesticide ([2]; 310 K) | ΔH^0 [2] [kJ/mol] | ΔS^0 [2] [J · mol^−1 · K^−1] | other results
CNC(=O)ON=C(C)SC [Methomyl, methomyl] | 50.756 | 49.970 | 52883.69408 | −21.14 | -16.131 | 3.401 ± 0.068 10^12 M^−1s^−1 | 3.401 ± 0.068 10^4 M^−1 | 0.661 ± 0.003 | -18.633 | 4.025 ± 0.136 10^12 M^−1s^−1 | 4.025 ± 0.136 10^4 M^−1 | 0.727 ± 0.008 | -21.135 | 2.145 | 5.288 ± 0.093 10^12 M^−1s^−1 | 5.288 ± 0.093 10^4 M^−1 | 0.766 ± 0.002 | quenched | 89.675 | 357.453 | Kd [2, 4]: 1460 µM; Kd [2, 5]: 579 µM; Kd [2, 6]: 283 µM; Binding distance/r [2]: 2.145; Number of binding sites/n [2]: 0.7657; LD50 [3]: 14.7 mg/kg; Toxicity [3]: Highly
CNC(=O)Oc1cccc(C)c1 [Metolcarb, metolcarb] | 53.549 | 53.215 | 44415.60221 | −16.22 | -13.291 | 3.261 ± 0.020 10^12 M^−1s^−1 | 3.261 ± 0.020 10^4 M^−1 | 0.564 ± 0.012 | -14.756 | 3.415 ± 0.159 10^12 M^−1s^−1 | 3.415 ± 0.159 10^4 M^−1 | 0.587 ± 0.001 | -16.222 | 2.525 | 4.442 ± 0.118 10^12 M^−1s^−1 | 4.442 ± 0.118 10^4 M^−1 | 0.616 ± 0.003 | quenched | 48.673 | 209.338 | Kd ([2]; Ka (binding constant), 296 K): 4450 µM; Kd ([2]; Ka (binding constant), 303 K): 2950 µM; Kd ([2]; Ka (binding constant), 310 K): 1820 µM; Binding distance/r [2]: 2.525; Number of binding sites/n [2]: 0.6156; LD50 [3]: 268 mg/kg; Toxicity [3]: Moderately
CNC(=O)O/N=C(\SC)C(=O)N(C)C [Oxamyl, oxamyl] | 50.883 | 49.354 | 66054.55780 | −22.83 | -20.331 | 5.229 ± 0.185 10^12 M^−1s^−1 | 5.229 ± 0.185 10^4 M^−1 | 0.774 ± 0.016 | -21.581 | 5.735 ± 0.073 10^12 M^−1s^−1 | 5.735 ± 0.073 10^4 M^−1 | 0.789 ± 0.004 | -22.831 | 2.564 | 6.605 ± 0.058 10^12 M^−1s^−1 | 6.605 ± 0.058 10^4 M^−1 | 0.807 ± 0.003 | quenched | 32.515 | 178.534 | Kd [2, 4]: 255 µM; Kd [2, 5]: 195 µM; Kd [2, 6]: 141 µM; Binding distance/r [2]: 2.564; Number of binding sites/n [2]: 0.8074; LD50 [3]: 2.5 mg/kg; Toxicity [3]: Highly
CNC(=O)Oc1cc(C)cc(C(C)C)c1 [Promecarb, promecarb] | 48.610 | 48.538 | 58172.07681 | −21.38 | -14.733 | 2.409 ± 0.154 10^12 M^−1s^−1 | 2.409 ± 0.154 10^4 M^−1 | 0.645 ± 0.004 | -18.058 | 3.705 ± 0.060 10^12 M^−1s^−1 | 3.705 ± 0.060 10^4 M^−1 | 0.704 ± 0.008 | -21.383 | 2.316 | 5.817 ± 0.219 10^12 M^−1s^−1 | 5.817 ± 0.219 10^4 M^−1 | 0.769 ± 0.009 | quenched | 125.885 | 475.061 | Kd ([2]; Ka (binding constant), 296 K): 2430 µM; Kd ([2]; Ka (binding constant), 303 K): 822 µM; Kd ([2]; Ka (binding constant), 310 K): 241 µM; Binding distance/r [2]: 2.316; Number of binding sites/n [2]: 0.7688; LD50 [3]: 35 mg/kg; Toxicity [3]: Highly
